Assay results taken from patent publication US11021446B2 (NOVARTIS AG, priority 2013, dated 2021).

Molecular target: T1, human Farnesoid X Receptor (FXR) ligand binding domain (GST-FXR LBD) (Homo sapiens, UniProt Q96RI1)
T1 construct: purchased Invitrogen
T1 sequence (Q96RI1 193-472 isoform Q96RI1-2): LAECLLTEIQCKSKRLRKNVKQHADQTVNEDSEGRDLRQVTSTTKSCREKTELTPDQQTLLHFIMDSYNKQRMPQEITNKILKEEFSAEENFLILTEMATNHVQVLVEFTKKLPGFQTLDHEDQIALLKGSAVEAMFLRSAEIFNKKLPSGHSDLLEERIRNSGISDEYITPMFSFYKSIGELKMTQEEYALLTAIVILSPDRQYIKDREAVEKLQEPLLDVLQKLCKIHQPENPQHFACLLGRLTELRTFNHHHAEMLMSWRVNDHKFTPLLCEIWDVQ
Test: Human GST-FXR LBD co-activator interaction assay (FXR HTRF assay)
Format: biochemical
Conditions: GST-FXR LBD interaction with biotin-labeled SRC-1 peptide, FRET, response relative to GW4064, read-out: FXR coactivator interaction assay (HTRF)
Excerpt: Human GST-FXR LBD Co-Activator Interaction Assay
The FXR HTRF assay is a biochemical assay measuring the interaction between FXR and a coactivator protein (SRC1). The ligand-induced interaction with a coactivator protein is a critical step in transcriptional activation by FXR. Thus, this is an assay designed to measure FXR agonist activity of the test compounds.
Recombinant human Farnesoid X Receptor (FXR) ligand binding domain (amino acids 193-472) fused to glutathione S-transferase (GST) purified protein (GST-FXR LBD) was purchased (Invitrogen). The ligand-dependent interaction between GST-FXR LBD and a peptide derived from Steroid Receptor Coactivator-1 (SRC-1) was monitored by Fluorescence Resonance Energy Transfer (FRET). […] Test compounds (in DMSO solution) and detection reagents (anti-GST-Cryptate labeled antibody and Streptavidin-XL665 conjugate; CisBio) were added in assay buffer containing 50 mM KF. Plates are incubated at room temperature in the dark for 2.5 hrs before reading on an Envision (PerkinElmer) at 665 nm and 590 nm. The HTRF assay results were calculated from the 665 nm/590 nm ratio (ratio=(A665 nm/A590 nm)×10^4) and expressed in Delta F %=(Ratiosample−Rationegative)/Rationegative×100.
A negative control (without Streptavidin-XL665) was run with each assay and represented the background fluorescence. A reference FXR agonist, (E)-3-(2-chloro-4-((3-(2,6-dichlorophenyl)-5-isopropylisoxazol-4-yl)methoxy)styryl)benzoic acid (Compound GW4064), was included in each experiment as positive control. The efficacy of each test compound was compared to that of GW4064. At each concentration, the relative activity of the test compound was expressed as Response %=(Rsample−RDMSO)/(Rpositive−RDMSO), where Rsample is the HTRF response (expressed in Delta F %) for the test compound, Rpositive is the maximal response for GW4064 at saturating concentrations, and RDMSO is the response for DMSO control. The EC50 values were calculated using GraphPad Prism (GraphPad Software) using non-linear regression curve fit (log(agonist) vs. response-variable slope (four parameters)).

SMILES | EC50 [nM]
Cn1nc(C(=O)N(Cc2ccc(C(=O)O)cc2)Cc2ccc3[nH]ccc3c2)c2c1-c1cc(Cl)ccc1OC2 [Compound 86, 4-((N-((1H-indol-5-yl)methyl)-8-chloro-1-methyl-1,4-dihydrochromeno[4,3-c]pyrazole-3-carboxamido)methyl)benzoic acid] | 12
Cn1nc(C(=O)N(Cc2ccc(C(=O)O)cc2)Cc2cncc(F)c2)c2c1-c1cc(Cl)ccc1OC2 [Compound 88, 4-((8-chloro-N-((5-fluoropyridin-3-yl)methyl)-1-methyl-1,4-dihydrochromeno[4,3-c]pyrazole-3-carboxamido)methyl)benzoic acid] | 15
Cn1nc(C(=O)N(CC(=O)Nc2cccc(C(=O)O)c2)Cc2ccccc2F)c2c1-c1ccc(F)cc1OC2 [Compound 8, 3-(2-(7-fluoro-N-(2-fluorobenzyl)-1-methyl-1,4-dihydrochromeno[4,3-c]pyrazole-3-carboxamido)acetamido)benzoic acid] | 3.3
Cc1cc(C(=O)O)cc(C)c1OCCN(CC1CCCC1)C(=O)c1nn(C)c2c1COc1ccc(Cl)cc1-2 [Compound 49, 4-(2-(8-chloro-N-(cyclopentylmethyl)-1-methyl-1,4-dihydrochromeno[4,3-c]pyrazole-3-carboxamido)ethoxy)-3,5-dimethylbenzoic acid] | 17
Cn1nc(C(=O)N(CCNc2cc(C(=O)O)ccc2F)Cc2ccccc2)c2c1-c1cc(F)c(F)cc1OC2 [Compound 74, 3-((2-(N-benzyl-7,8-difluoro-1-methyl-1,4-dihydrochromeno[4,3-c]pyrazole-3-carboxamido)ethyl)amino)-4-fluorobenzoic acid] | 55
Cc1ccc2c(c1)-c1c(c(C(=O)N(CC(=O)Nc3cccc(C(=O)O)c3)Cc3ccccc3F)nn1C)CO2 [Compound 5, 3-(2-(N-(2-fluorobenzyl)-1,8-dimethyl-1,4-dihydrochromeno[4,3-c]pyrazole-3-carboxamido)acetamido)benzoic acid] | 0.8
CC(CNC(=O)CN(Cc1ccccc1F)C(=O)c1nn(C)c2c1COc1ccc(Cl)cc1-2)C(=O)O (stereo not shown) [Compound 40, 3-(2-(8-chloro-N-(2-fluorobenzyl)-1-methyl-1,4-dihydrochromeno[4,3-c]pyrazole-3-carboxamido)acetamido)-2-methylpropanoic Acid] | 8.6
Cn1nc(C(=O)N(Cc2cccc(F)c2)Cc2ccc(C(=O)O)cc2F)c2c1-c1cc(Cl)ccc1OC2 [Compound 96, 4-((8-chloro-N-(3-fluorobenzyl)-1-methyl-1,4-dihydrochromeno[4,3-c]pyrazole-3-carboxamido)methyl)-3-fluorobenzoic acid] | 3.6
Cc1cccc(CN(Cc2ccc(C(=O)O)cc2)C(=O)c2nn(C)c3c2COc2ccc(Cl)cc2-3)c1 [Compound 80, 4-((8-chloro-1-methyl-N-(3-methylbenzyl)-1,4-dihydrochromeno[4,3-c]pyrazole-3-carboxamido)methyl)benzoic acid] | 16
Cn1nc(C(=O)N(CCOc2ccc(C(=O)O)cc2F)Cc2cccc(F)c2)c2c1-c1cc(F)ccc1OC2 [Compound 58, 3-fluoro-4-(2-(8-fluoro-N-(3-fluorobenzyl)-1-methyl-1,4-dihydrochromeno[4,3-c]pyrazole-3-carboxamido)ethoxy)benzoic acid] | 22
Cn1nc(C(=O)N(CCNc2cc(C(=O)O)ccc2F)Cc2ccccc2)c2c1-c1cc(Cl)ccc1OC2 [Compound 72, 3-((2-(N-benzyl-8-chloro-1-methyl-1,4-dihydrochromeno[4,3-c]pyrazole-3-carboxamido)ethyl)amino)-4-fluorobenzoic acid] | 2.6
Cn1nc(C(=O)N(CC(=O)Nc2cc(C(=O)O)ccc2F)Cc2ccccc2F)c2c1-c1ccccc1OC2 [Compound 16, 4-fluoro-3-(2-(N-(2-fluorobenzyl)-1-methyl-1,4-dihydrochromeno[4,3-c]pyrazole-3-carboxamido)acetamido)benzoic acid] | 3.4
Cn1nc(C(=O)N(CCNc2cc(C(=O)O)ccc2F)Cc2ccccc2F)c2c1-c1cc(F)ccc1OC2 [Compound 69, 4-fluoro-3-((2-(8-fluoro-N-(2-fluorobenzyl)-1-methyl-1,4-dihydrochromeno[4,3-c]pyrazole-3-carboxamido)ethyl)amino)benzoic acid] | 25
Cn1nc(C(=O)N(Cc2ccc(C(=O)O)cc2)Cc2cc(F)cc(F)c2)c2c1-c1cc(Cl)ccc1OC2 [Compound 78, 4-((8-chloro-N-(3,5-difluorobenzyl)-1-methyl-1,4-dihydrochromeno[4,3-c]pyrazole-3-carboxamido)methyl)benzoic acid] | 8.3
Cn1nc(C(=O)N(Cc2ccccc2)Cc2ccc(C(=O)O)cc2F)c2c1-c1cc(F)ccc1OC2 [Compound 79, 4-((N-benzyl-8-fluoro-1-methyl-1,4-dihydrochromeno[4,3-c]pyrazole-3-carboxamido)methyl)-3-fluorobenzoic acid] | 22
Cn1nc(C(=O)N(CC(=O)NCC(C)(C)C(=O)O)Cc2ccccc2F)c2c1-c1cc(Cl)ccc1OC2 [Compound 41, 3-(2-(8-chloro-N-(2-fluorobenzyl)-1-methyl-1,4-dihydrochromeno[4,3-c]pyrazole-3-carboxamido)acetamido)-2,2-dimethylpropanoic acid] | 4
Cc1cccc(CN(Cc2ccc(C(=O)O)cc2F)C(=O)c2nn(C)c3c2COc2ccc(F)cc2-3)c1 [Compound 85, 3-fluoro-4-((8-fluoro-1-methyl-N-(3-methylbenzyl)-1,4-dihydrochromeno[4,3-c]pyrazole-3-carboxamido)methyl)benzoic acid] | 35
Cn1nc(C(=O)N(CC(=O)Nc2cc(C(=O)O)ccc2F)Cc2ccccc2F)c2c1-c1cc(F)c(F)cc1OC2 [Compound 17, 3-(2-(7,8-difluoro-N-(2-fluorobenzyl)-1-methyl-1,4-dihydrochromeno[4,3-c]pyrazole-3-carboxamido)acetamido)-4-fluorobenzoic acid] | 1
Cn1nc(C(=O)N(CC(=O)Nc2cc(F)cc(C(=O)O)c2)Cc2ccccc2F)c2c1-c1cc(Cl)ccc1OC2 [Compound 38, 3-(2-(8-chloro-N-(2-fluorobenzyl)-1-methyl-1,4-dihydrochromeno[4,3-c]pyrazole-3-carboxamido)acetamido)-5-fluorobenzoic Acid] | 2.6
Cn1nc(C(=O)N(CCOc2cc(C(=O)O)ccc2F)Cc2ccccc2F)c2c1-c1cc(Cl)ccc1OC2 [Compound 48, 3-(2-(8-chloro-N-(2-fluorobenzyl)-1-methyl-1,4-dihydrochromeno[4,3-c]pyrazole-3-carboxamido)ethoxy)-4-fluorobenzoic acid] | 61
Cn1nc(C(=O)N(CCOc2ccc(C(=O)O)cc2)Cc2ccccc2F)c2c1-c1cc(Cl)ccc1OC2 [Compound 45, 4-(2-(8-chloro-N-(2-fluorobenzyl)-1-methyl-1,4-dihydrochromeno[4,3-c]pyrazole-3-carboxamido)ethoxy)benzoic acid] | 15
Cn1nc(C(=O)N(CC(=O)Nc2cc(C(=O)O)ccc2F)Cc2ccccc2F)c2c1-c1cc(Cl)ccc1OC2 [Compound 64, 3-(2-(8-chloro-N-(2-fluorobenzyl)-1-methyl-1,4-dihydrochromeno[4,3-c]pyrazole-3-carboxamido)acetamido)-4-fluorobenzoic Acid] | 0.6
Cn1nc(C(=O)N(CC(=O)Nc2cccc(C(=O)O)c2)Cc2ccccc2)c2c1-c1cc(Cl)ccc1OC2 [Compound 31, 3-(2-(N-benzyl-8-chloro-1-methyl-1,4-dihydrochromeno[4,3-c]pyrazole-3-carboxamido)acetamido)benzoic acid] | 0.47
Cc1cccc(CN(CC(=O)Nc2cc(C(=O)O)ccc2F)C(=O)c2nn(C)c3c2COc2ccc(Cl)cc2-3)c1 [Compound 3, 3-(2-(8-chloro-1-methyl-N-(3-methylbenzyl)-1,4-dihydrochromeno[4,3-c]pyrazole-3-carboxamido)acetamido)-4-fluorobenzoic acid] | 0.51
Cn1nc(C(=O)N(CCNc2cc(C(=O)O)ccc2F)Cc2cccc(F)c2)c2c1-c1cc(F)c(F)cc1OC2 [Compound 73, 3-((2-(7,8-difluoro-N-(3-fluorobenzyl)-1-methyl-1,4-dihydrochromeno[4,3-c]pyrazole-3-carboxamido)ethyl)amino)-4-fluorobenzoic acid] | 20
